# Laboratory results: patent US7727986B2, “Pesticide pyrimidinyloxy substituted phenylamidine derivatives” (Bayer CropScience AG, priority 2005, dated 2010)
# Assay: logP by HPLC on reversed-phase column (C 18), EEC Directive 79/831 Annex V.A8
# Type: physicochemical
# Conditions: HPLC, 0.1% aqueous formic acid and acetonitrile, 40° C.; pH 2.3
# Method: Temperature: 40° C.; Mobile phases: 0.1% aqueous formic acid and acetonitrile; linear gradient from 10% acetonitrile to 90% acetonitrile.
row,logPa,SMILES
1,1.61,"CCN(C)C=Nc1cc(C)c(Oc2ccnc(N(C)c3ccccc3)n2)cc1C [Compound 1, N′-{2,5-dimethyl-4-[2-(methyl-phenyl-amino)-pyrimidin-4-yloxy]-phenyl}-N-ethyl-N-methyl-formamidine]"
2,2.08,"CCN(C)C=Nc1cc(C)c(Oc2ccnc(Oc3cccc(Cl)c3C)n2)cc1C [Compound 2, N′-{4-[2-(3-chloro-2-methyl-phenoxy)-pyrimidin-4-yloxy]-2,5-dimethyl-phenyl}-N-ethyl-N-methyl-formamidine]"
3,1.45,"CCN(C)C=Nc1cc(C)c(Oc2cc(C)nc(Cl)n2)cc1C [Compound 3, N′-{4-[(2-chloro-6-methylpyrimidin-4-yl)oxy]-2,5-dimethylphenyl}-N-ethyl-N-methylimido-formamide]"
4,2.6,CCN(C)C=Nc1cc(C)c(Oc2ncnc(Oc3cccc(Cl)c3C)c2C)cc1C [Compound 8]
5,0.82,CCN(C)C=Nc1cc(C)c(Oc2ccnc(N(C)CC)n2)cc1C [Compound 10]
6,1.16,CCN(C)C=Nc1cc(C)c(Oc2ccnc(OC)n2)cc1C [Compound 11]
7,1.38,CCCN(C)C=Nc1cc(C)c(Oc2ccnc(OC)n2)cc1C [Compound 12]
8,1.25,CCCN(C)c1nccc(Oc2cc(C)c(N=CN(C)CC)cc2C)n1 [Compound 13]
9,1.4,CCN(C)C=Nc1cc(C)c(Oc2cc(Cl)ncn2)cc1C [Compound 15]
10,1.56,CCCN(C)C=Nc1cc(C)c(Oc2cc(Cl)ncn2)cc1C [Compound 16]
11,1.54,Cc1cc(Oc2cc(Cl)ncn2)c(C)cc1N=CN(C)C(C)C [Compound 17]
12,1.3,CCN(C)C=Nc1cc(C)c(Oc2ccnc(N3CCOCC3)n2)cc1C [Compound 19]
13,1.4,CCN(C)C=Nc1cc(C)c(Oc2ccnc(N3CCCCC3)n2)cc1C [Compound 21]
14,1.58,CCCN(C)C=Nc1cc(C)c(Oc2ccnc(N3CCCCC3)n2)cc1C [Compound 22]
15,1.3,CCN(C)C=Nc1cc(C)c(Oc2ccnc(Cl)n2)cc1C [Compound 23]
16,1.44,CCCN(C)C=Nc1cc(C)c(Oc2ccnc(Cl)n2)cc1C [Compound 24]
17,1.4,Cc1cc(Oc2ccnc(Cl)n2)c(C)cc1N=CN(C)C(C)C [Compound 25]
18,1.4,COc1nccc(Oc2cc(C)c(N=CN(C)C(C)C)cc2C)n1 [Compound 26]
19,1.42,CCN(C)C=Nc1cc(C)c(Oc2nc(Cl)ncc2C)cc1C [Compound 27]
20,1.68,CCCN(C)C=Nc1cc(C)c(Oc2nc(Cl)ncc2C)cc1C [Compound 28]
21,2.04,Cc1cc(Oc2ccnc(Nc3cccc(Cl)c3)n2)c(C)cc1N=CN(C)C(C)C [Compound 29]
22,1.94,CCN(C)C=Nc1cc(C)c(Oc2ccnc(Nc3cccc(Cl)c3)n2)cc1C [Compound 30]
23,1.01,Cc1cc(Oc2ccnc(N3C=NCC3)n2)c(C)cc1N=CN(C)C(C)C [Compound 31]

row,logPa,SMILES
1,1.62,CCCN(C)C=Nc1cc(C)c(Oc2cc(C)nc(Cl)n2)cc1C [Compound 32]
2,1.46,Cc1cc(Oc2ccnc(N3CCOCC3)n2)c(C)cc1N=CN(C)C(C)C [Compound 33]
3,1.56,Cc1cc(Oc2ccnc(N3CCCCC3)n2)c(C)cc1N=CN(C)C(C)C [Compound 34]
4,1.68,CCN(C)C=Nc1cc(C)c(Oc2ccnc(Oc3ccccc3)n2)cc1C [Compound 35]
5,0.89,CCCN(C)C=Nc1cc(C)c(Oc2ccnc(N(C)C)n2)cc1C [Compound 38]
6,1.32,CCN(C)C=Nc1cc(C)c(Oc2cc(OC)ncn2)cc1C [Compound 39]
7,1.47,CCCN(C)C=Nc1cc(C)c(Oc2cc(OC)ncn2)cc1C [Compound 40]
8,1.6,CCCN(C)C=Nc1cc(C)c(Oc2cc(N(C)CC)ncn2)cc1C [Compound 42]
9,1.46,CCN(C)C=Nc1cc(C)c(Oc2cc(N(C)CC)ncn2)cc1C [Compound 43]
10,1.62,CCOc1nccc(Oc2cc(C)c(N=CN(C)C(C)C)cc2C)n1 [Compound 44]
11,1.56,CCN(C)c1cc(Oc2cc(C)c(N=CN(C)C(C)C)cc2C)ncn1 [Compound 45]
12,1.62,Cc1cc(Oc2nc(Cl)ncc2C)c(C)cc1N=CN(C)C(C)C [Compound 46]
13,1.47,CCOc1nccc(Oc2cc(C)c(N=CN(C)CC)cc2C)n1 [Compound 47]
14,1.49,COc1cc(Oc2cc(C)c(N=CN(C)C(C)C)cc2C)ncn1 [Compound 48]
15,1.74,CCCN(C)c1cc(Oc2cc(C)c(N=CN(C)CC)cc2C)ncn1 [Compound 49]
16,1.55,CCCN(C)C=Nc1cc(C)c(Oc2ccnc(OCC)n2)cc1C [Compound 50]
17,1.79,CCCN(C)C=Nc1cc(C)c(Oc2cc(N(C)CCC)ncn2)cc1C [Compound 51]
18,2.06,CCCN(C)C=Nc1cc(C)c(Oc2ccnc(Nc3cccc(Cl)c3)n2)cc1C [Compound 52]
19,1.77,CCCN(C)c1cc(Oc2cc(C)c(N=CN(C)C(C)C)cc2C)ncn1 [Compound 53]
20,2.61,CCN(C)C=Nc1cc(C)c(Oc2cc(Cl)nc(C(C)(C)C)n2)cc1C [Compound 59]
21,2.8,Cc1cc(Oc2cc(Cl)nc(C(C)(C)C)n2)c(C)cc1N=CN(C)C(C)C [Compound 60]
22,1.84,Cc1cc(Oc2ccnc(N(C)c3ccccc3)n2)c(C)cc1N=CN1CCCCC1 [Compound 61]
23,1.65,Cc1cc(Oc2ccnc(Oc3ccccc3)n2)c(C)cc1N=CN(C)C [Compound 63]

row,logPa,SMILES
1,1.67,CCN(C)C=Nc1cc(C)c(Oc2nc(Cl)ncc2Cl)cc1C [Compound 64]
2,1.81,Cc1cc(Oc2ccnc(Oc3ccccc3)n2)c(C)cc1N=CN(C)C(C)C [Compound 66]
3,2.14,CCCN(C)C=Nc1cc(C)c(Oc2ccnc(Oc3cccc(Cl)c3)n2)cc1C [Compound 67]
4,2.12,Cc1cc(Oc2ccnc(Oc3cccc(Cl)c3)n2)c(C)cc1N=CN(C)C(C)C [Compound 68]
5,1.67,CCN(C)C=Nc1cc(C)c(Oc2cc(Cl)nc(Cl)n2)cc1C [Compound 69]
6,1.93,CCN(C)C=Nc1cc(C)c(Oc2ccnc(Oc3ccc(F)c(F)c3)n2)cc1C [Compound 70]
7,1.65,CCN(C)C=Nc1cc(C)c(Oc2ccnc(Oc3ccc(OC)c(OC)c3)n2)cc1C [Compound 71]
8,1.96,CCN(C)C=Nc1cc(C)c(Oc2ccnc(Oc3ccccc3)n2)cc1C [Compound 72]
9,1.99,CCN(C)C=Nc1cc(C)c(Oc2cc(C)nc(Oc3ccccc3)n2)cc1C [Compound 73]
10,1.80,COc1ccc(Oc2nccc(Oc3cc(C)c(N=CN4CCCCC4)cc3C)n2)cc1OC [Compound 74]
11,2.09,Cc1cc(Oc2cc(C)c(N=CN3CCCCC3)cc2C)nc(Oc2ccccc2)n1 [Compound 75]
12,2.02,Cc1cc(Oc2ccnc(Oc3ccccc3)n2)c(C)cc1N=CN1CCCCC1 [Compound 76]
13,2.65,CCN(C)C=Nc1cc(C)c(Oc2ccnc(Oc3ccc(C(C)(C)C)cc3)n2)cc1C [Compound 77]
14,2.75,Cc1cc(Oc2ccnc(Oc3ccc(C(C)(C)C)cc3)n2)c(C)cc1N=CN1CCCCC1 [Compound 78]
15,2.02,CCN(C)C=Nc1cc(C)c(Oc2ccnc(Oc3cccc(C)c3)n2)cc1C [Compound 79]
16,2.16,Cc1cccc(Oc2nccc(Oc3cc(C)c(N=CN4CCCCC4)cc3C)n2)c1 [Compound 80]
17,2.11,CCN(C)C=Nc1cc(C)c(Oc2ccnc(Oc3ccc(Cl)cc3)n2)cc1C [Compound 81]
18,2.18,Cc1cc(Oc2ccnc(Oc3ccc(Cl)cc3)n2)c(C)cc1N=CN1CCCCC1 [Compound 82]
19,1.91,CCc1ncnc(Oc2cc(C)c(N=CN(C)CC)cc2C)c1Cl [Compound 83]
20,1.99,CCCN(C)C=Nc1cc(C)c(Oc2ncnc(CC)c2Cl)cc1C [Compound 84]
21,1.98,CCc1ncnc(Oc2cc(C)c(N=CN3CCCCC3)cc2C)c1Cl [Compound 85]
22,1.87,CCc1ncnc(Oc2cc(C)c(N=CN3CCCC3)cc2C)c1Cl [Compound 86]
23,2.37,CCN(C)C=Nc1cc(C)c(Oc2ccnc(Oc3ccc(C(F)(F)F)cc3)n2)cc1C [Compound 87]

row,SMILES,logPa
1,CCCN(C)C=Nc1cc(C)c(Oc2ccnc(N3CCOCC3)n2)cc1C [Compound 20],3.13

# Same assay, conditions: measured at pH = 4 (footnote a)
row,logPa,SMILES
1,1.98^a,CCN(C)C=Nc1cc(C)c(Oc2cc(C(C)(C)C)ncn2)cc1C [Compound 4]
2,4.35^a,CCN(C)C=Nc1cc(C)c(Oc2cc(Oc3cccc(C(F)(F)F)c3)ncn2)cc1C [Compound 5]
3,3.19^a,CCN(C)C=Nc1cc(C)c(Oc2cc(-c3cccc(C(F)(F)F)c3)ncn2)cc1C [Compound 6]
4,1.85^a,CCN(C)C=Nc1cc(C)c(Oc2cc(C(F)(F)F)ncn2)cc1C [Compound 7]
5,4.9^a,CCN(C)C=Nc1cc(C)c(Oc2cc(Oc3cccc(C(C)(C)C)c3)ncn2)cc1C [Compound 9]

# Same assay, conditions: pH 2.3
row,SMILES,log P (pH 2.3)
1,Cc1cc(Oc2ccnc(Cl)n2)c(C)cc1N [4-(2-chloro-pyrimidin-4-yloxy)-2.5-dimethyl-phenylamine],1.37

# Same assay, conditions: reversed-phase C18 HPLC column; pH 2.3; value in preparation example text; read-out: log P (pH 2.3)
row,chromatographic logP,SMILES
1,1.88,"CCN(C)c1nc(Oc2cc(C)c(N)cc2C)ncc1Cl [2-(4-amino-2,5-dimethylphenoxy)-5-chloro-N-ethyl-N-methylpyrimidin-4-amine]"
2,2.81,"Cc1cc(Oc2ccnc(Oc3cccc(Cl)c3C)n2)c(C)cc1N [4-[2-(3-chloro-2-methyl-phenoxy)-pyrimidin-4-yloxy]-2,5-dimethyl-phenylamine]"
3,1.62,"Cc1cc(Oc2cc(C)c(N)cc2C)nc(Cl)n1 [4-[(2-chloro-6-methylpyrimidin-4-yl)oxy]-2,5-dimethylaniline]"
4,4.07,"CCN(C)c1nc(Oc2cc(C)c([N+](=O)[O-])cc2C)ncc1Cl [5-chloro-2-(2,5-dimethyl-4-nitrophenoxy)-N-ethyl-N-methylpyrimidin-4-amine]"
5,1.61,"CCN(C)C=Nc1cc(C)c(Oc2ccnc(N(C)c3ccccc3)n2)cc1C [Compound 1, N′-{2,5-dimethyl-4-[2-(methyl-phenyl-amino)-pyrimidin-4-yloxy]-phenyl}-N-ethyl-N-methyl-formamidine]"
6,2.08,"CCN(C)C=Nc1cc(C)c(Oc2ccnc(Oc3cccc(Cl)c3C)n2)cc1C [Compound 2, N′-{4-[2-(3-chloro-2-methyl-phenoxy)-pyrimidin-4-yloxy]-2,5-dimethyl-phenyl}-N-ethyl-N-methyl-formamidine]"
7,1.45,"CCN(C)C=Nc1cc(C)c(Oc2cc(C)nc(Cl)n2)cc1C [Compound 3, N′-{4-[(2-chloro-6-methylpyrimidin-4-yl)oxy]-2,5-dimethylphenyl}-N-ethyl-N-methylimido-formamide]"
